The source of these data is patent publication EP3831363A1 (Solis Herrera, Arturo, priority 2019, dated 2021).

In brackets after ≈: the same amount, converted by molar mass.

For data set [1] the following is noted: in vivo.
Source text: Thereby the healing process of a human ulcer is examined as a basic condition.
A further data set deals with IFN-γ production. On the procedure: (§1) After 24 hours of incubation in 37°C/5%CO2 samples of leukocytes and supernatants were collected.
(§2) Cytokine levels were determined using ELISA kits (BD Biosciences, USA) for human IFNγ, TNF-α and IL-6 and DuoSet for human IL-3 (R&D Systems, USA) according to the producers' instructions. The optical density was measured at 450 nm using a Multiskan RC spectrophotometric reader (Thermo Labsystems, USA), Cytokine concentrations were expressed in pg/ml.

A further data set deals with IL-6 production. On the procedure:
as §1, §2

For another data set, the system named is TNF-α production. On the procedure: as §1, §2
A further data set concerns human PBLs. To be noted: human leukocytes, 48 hours, MTT.
The conditions of data set [2]: rats given 4,5 mg/kg of mercury (HgHCI); treatment of 0,0937 mg/ml; without treatment 6 in 8 rats died.
The nature of a further data set: in vitro. The following applies: human, peripheral blood leukocytes.
Another data set relates to H1N1 virus. The following applies: H1N1 infected chicken, 0,002 mg/kg each 24 hours, 24 hours after treatment, versus control group.
A further data set concerns A549 cells. Briefly: cells. The following applies: Homo sapiens, A549, 96 h. On the procedure:
(§3) Further, a proliferation test was prepared for the same three cell lines: WI-38, A549 and HS 683. 3x10^4 WI-38 cells and 2x10^4 A549 and HS 683. Cells were seeded into each wells in 96-well culture plates in appropriate culture medium with 10% FBS (fetal bovine serum). […] After 96 hours incubation in 37°C/5%CO2 MTT assay was performed for establishing the cell viability.

The next data set relates to HS-683. The experiment in a line: cells. To be noted: Homo sapiens, Hs 683, 96 h. On the procedure: as §3
The subject of a further data set is WI-38 cells. Briefly: cells. The following applies: Homo sapiens, WI-38, 96 h. The method, then: as §3
Setting [3] is: read-out: concentration that inhibits 50% of the proliferation.

Procedure for human PBLs: (§4) Thereby, cell viability was determined on the basis of the mitochondria-dependent reduction of MTT (3-[4,5-dimethyltiazol 2yl]-2,5-diphenyltetrazolium bromide) to formazan. […] Next cells were treated with 20 µl of MTT. After 3 hours of incubation at 37°C, the formazan blue formed in the cells was dissolved in 100 µl of SDS (sodium dodecylsulfate) for 3 hours in 37°C. The optical density was measured at 570 nm.
(§5) After the cytotoxicity tests LC50 (LCso-lethal concentration, 50%-dose required to kill half of the cells after a specified test duration) were estimated for each cell lines and PBLs (leukocytes of peripheral blood). Additionally for PBLs LC10 and LC5 were calculated.
Procedure for in vitro: as §4, §5

On to `CN1CCC[C@H]1c1cccnc1`, for which, in data set [1], the “healing effect on ulcer” value was “increased healing effect”. Further, the “effect on IFN-γ production” value in the data set with IFN-γ production is listed as “strongly decreases the level of interferon in a dose-dependent manner”. Further, in the data set with IL-6 production, the “effect on IL-6 production” value is “no effect”. The “effect on TNF-α production” value in the data set on TNF-α production is “increases the level of cytokines in a dose-dependent manner”. The LC5 with human PBLs is 0,5 mg/ml. Moreover, the LC10 in the data set with human PBLs was found to be 1000 µg/mL (≈ 6.16 mM). The mortality in data set [2] was 0,625 of 8 rats. The compound further gave a CC50 at 48 h in “in vitro” of 7000 µg/mL (≈ 43.1 mM). Also, the egg production entry with H1N1 virus is recorded as “began to lay off eggs”. Moreover, the results for the IC50 in the data set on A549 cells (setting [3]), in the data set on HS-683 (setting [3]) and in the data set on WI-38 cells (setting [3]) were 2000 µg/mL (≈ 12.3 mM), 2900 µg/mL (≈ 17.9 mM) and 1000 µg/mL (≈ 6.16 mM), respectively. The values for the IC99 in the data set on A549 cells (read-out: concentration that inhibits 99% of the proliferation), in the data set with HS-683 (read-out: concentration at which 99% of proliferation are inhibited) and in the data set with WI-38 cells (read-out: concentration that inhibits a proliferation of 99%) were 5500 µg/mL, 5500 µg/mL and 4500 µg/mL, respectively.
